In the assay the test system is P388 leukemia ip, CD2F1 mice, survival T/C. The assay can be described thus: NCI In Vivo Anticancer Drug Screen. Data for tumor model P388 Leukemia (intraperitoneal) in CD2F1 (CDF1) mice. The conditions noted are these: endpoint: median survival time, higher = longer survival. In short, it runs like this:
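Mice carrying the transplanted tumor received test compound or vehicle. Survival was recorded in each group, and the value is the treated-group measurement divided by that of the vehicle-treated control group.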

The mark [1] stands for this setting: dose: 100.0 mg/kg/injection, schedule: Q01DX009 (ip), vehicle: saline with Tween-80.
[2] abbreviates: dose: 60.0 mg/kg/injection, schedule: Q01DX005 (ip), vehicle: saline with Tween-80.
Setting [3] is: dose: 120.0 mg/kg/injection, schedule: Q01DX005 (ip), vehicle: saline with Tween-80.
[4] abbreviates: dose: 240.0 mg/kg/injection, schedule: Q01DX005 (ip), vehicle: saline with Tween-80.

Structures are written as SMILES. “And” between values parts separate entries of the source, which are not always exact repeats. Equal values may be shown once. Toxic doses and inconclusive results are not listed. Bridge positions count the residues as written; N and C are the ends. Square brackets hold non-standard residues; d marks the D form. Peptide text beside a SMILES is read from it. I, II: the chains in the order shown. * marks the point of attachment. Quinoxaline2carbonyl = O=C(c1cnc2ccccc2n1)*; NMeV = CN[CH](C(=O)O)C(C)C; NMeC = CN[CH](CS)C(=O)O

Consider `CC(C)(C)N1CC1C#N` (stereo not given), for which the T/C reads like this: (dose: 3.13 mg/kg/injection, schedule: Q01DX009 (ip), vehicle: saline) 111 % of control; (dose: 6.25 mg/kg/injection, schedule: Q01DX009 (ip), vehicle: saline) 104 % of control; (dose: 12.5 mg/kg/injection, schedule: Q01DX009 (ip), vehicle: saline) 101 % of control.

Turning to `COC1=C2C[C@@H](C)C[C@@H](OC)[C@@H](O)[C@H](C)/C=C(\C)[C@@H](OC(N)=O)[C@H](OC)/C=C\C=C(/C)C(=O)NC(=CC1=O)C2=O`, the T/C reads like this: (dose: 0.75 mg/kg/injection, schedule: Q01DX009 (ip), vehicle: saline with Tween-80) 114 % of control; (dose: 1.5 mg/kg/injection, schedule: Q01DX009 (ip), vehicle: saline with Tween-80) 115 % of control.

Regarding `O=C1C=CCC12CC=CC2=O`, the T/C by setting is: (dose: 6.25 mg/kg/injection, schedule: Q01DX001 (ip), vehicle: Klucel (hydroxypropylcellulose) (HPC)) 100 % of control and 105 % of control; (dose: 12.5 mg/kg/injection, schedule: Q01DX001 (ip), vehicle: Klucel (hydroxypropylcellulose) (HPC)) 117 % of control and 94 % of control; (dose: 25.0 mg/kg/injection, schedule: Q01DX001 (ip), vehicle: Klucel (hydroxypropylcellulose) (HPC)) 100 % of control and 123 % of control.

As for `CCn1c2ccccc2c2ccc(N=Cc3cccc4ccccc34)cc21`, the T/C (dose: 100.0 mg/kg/injection, schedule: Q04DX003 (ip), vehicle: saline + alcohol) is 105 % of control; the T/C (dose: 200.0 mg/kg/injection, schedule: Q04DX003 (ip), vehicle: saline + alcohol) was 97 % of control; the T/C (dose: 400.0 mg/kg/injection, schedule: Q04DX003 (ip), vehicle: saline + alcohol) was 105 % of control.

`CCS/C(C#N)=C/c1ccccc1Cl`: the T/C is, setting by setting: (dose: 50.0 mg/kg/injection, schedule: Q01DX009 (ip), vehicle: saline with Tween-80) 103 % of control; under setting [1], 112 % of control.

In the case of `CCCCCCCCCCC(Nc1nncs1)Nc1nncs1`, the T/C is, setting by setting: under setting [2], 96 % of control; under setting [3], 95 % of control; under setting [4], 95 % of control.

For the compound `COc1ccc(/C=C2\CCn3c2nc2ccccc2c3=O)cc1`, the T/C by setting is: (dose: 89.75 mg/kg/injection, schedule: Q04DX002 (ip), vehicle: Klucel (hydroxypropylcellulose) (HPC)) 103 % of control; (dose: 179.5 mg/kg/injection, schedule: Q04DX002 (ip), vehicle: Klucel (hydroxypropylcellulose) (HPC)) 102 % of control; (dose: 359.0 mg/kg/injection, schedule: Q04DX002 (ip), vehicle: Klucel (hydroxypropylcellulose) (HPC)) 102 % of control.

As for `CCCCOC(=O)C1=NNC(=O)C1`, the T/C reads like this: (dose: 25.0 mg/kg/injection, schedule: Q01DX009 (ip), vehicle: Klucel (hydroxypropylcellulose) (HPC)) 115 % of control; (dose: 50.0 mg/kg/injection, schedule: Q01DX009 (ip), vehicle: Klucel (hydroxypropylcellulose) (HPC)) 108 % of control; (dose: 100.0 mg/kg/injection, schedule: Q01DX009 (ip), vehicle: Klucel (hydroxypropylcellulose) (HPC)) 112 % of control; (dose: 200.0 mg/kg/injection, schedule: Q01DX009 (ip), vehicle: Klucel (hydroxypropylcellulose) (HPC)) 108 % of control.

For the compound `CC1(CC(C)(C)c2ccccc2)OCCO1`, the T/C was 96 % of control (dose: 25.0 mg/kg/injection, schedule: Q01DX009 (ip), vehicle: water); 91 % of control (dose: 50.0 mg/kg/injection, schedule: Q01DX009 (ip), vehicle: water); 102 % of control (dose: 100.0 mg/kg/injection, schedule: Q01DX009 (ip), vehicle: water); 93 % of control (dose: 200.0 mg/kg/injection, schedule: Q01DX009 (ip), vehicle: water); 104 % of control (dose: 400.0 mg/kg/injection, schedule: Q01DX009 (ip), vehicle: water).

Consider `C=CCOC(=O)OCCO`, for which the T/C by setting is: (dose: 60.0 mg/kg/injection, schedule: Q01DX005 (ip), vehicle: saline) 101 % of control; (dose: 120.0 mg/kg/injection, schedule: Q01DX005 (ip), vehicle: saline) 108 % of control; (dose: 240.0 mg/kg/injection, schedule: Q01DX005 (ip), vehicle: saline) 99 % of control.

`CCOC(=O)C(C)(C)S(=O)(=O)Nc1ccccc1`: the T/C (dose: 60.0 mg/kg/injection, schedule: Q01DX005 (ip), vehicle: Klucel (hydroxypropylcellulose) (HPC)) was 105 % of control; the T/C (dose: 120.0 mg/kg/injection, schedule: Q01DX005 (ip), vehicle: Klucel (hydroxypropylcellulose) (HPC)) was 102 % of control; the T/C (dose: 240.0 mg/kg/injection, schedule: Q01DX005 (ip), vehicle: Klucel (hydroxypropylcellulose) (HPC)) was 102 % of control.

Turning to `CCOC(=S)c1cc(C(=S)OCC)cc(C(C)(C)C)c1`, the T/C is, setting by setting: (dose: 100.0 mg/kg/injection, schedule: Q04DX003 (ip), vehicle: saline with Tween-80) 103 % of control; (dose: 200.0 mg/kg/injection, schedule: Q04DX003 (ip), vehicle: saline with Tween-80) 108 % of control; (dose: 400.0 mg/kg/injection, schedule: Q04DX003 (ip), vehicle: saline with Tween-80) 113 % of control.

For the compound `COc1cc(/C=C/C(=O)c2ccc(Nc3ccnc4cc(Cl)ccc34)cc2)cc(OC)c1OC`, the T/C reads like this: (dose: 100.0 mg/kg/injection, schedule: Q01DX001 (ip), vehicle: saline with Tween-80) 102 % of control; (dose: 200.0 mg/kg/injection, schedule: Q01DX001 (ip), vehicle: saline with Tween-80) 97 % of control; (dose: 400.0 mg/kg/injection, schedule: Q01DX001 (ip), vehicle: saline with Tween-80) 93 % of control.

With `N#Cc1ccc(OC(=O)Nc2ccccc2Cl)cc1`, the T/C was 94 % of control under setting [2], 95 % of control under setting [3] and 86 % of control under setting [4].

Take `O=c1oc2ccccc2cc1S(=O)(=O)c1ccccc1`: the T/C is 94 % of control under setting [2], 91 % of control under setting [3] and 91 % of control under setting [4].

For `O=C(NC(Cc1ccsc1)C(=O)O)c1ccccc1` (stereo not given), the T/C is 102 % of control (dose: 25.0 mg/kg/injection, schedule: Q01DX009 (ip), vehicle: other); 104 % of control (dose: 50.0 mg/kg/injection, schedule: Q01DX009 (ip), vehicle: other); 98 % of control (dose: 100.0 mg/kg/injection, schedule: Q01DX009 (ip), vehicle: other).

As to `CON1C(=O)c2ccccc2C1=O`, the T/C under setting [1] is 99 % of control; the T/C (dose: 200.0 mg/kg/injection, schedule: Q01DX009 (ip), vehicle: saline with Tween-80) is 106 % of control; the T/C (dose: 400.0 mg/kg/injection, schedule: Q01DX009 (ip), vehicle: saline with Tween-80) was 106 % of control.

As for `CC1CCCN2C(=O)CN(Cc3ccccc3)CC(=O)N12` (stereo not given), the T/C by setting is: (dose: 50.0 mg/kg/injection, schedule: Q01DX005 (ip), vehicle: saline with Tween-80) 100 % of control; (dose: 100.0 mg/kg/injection, schedule: Q01DX005 (ip), vehicle: saline with Tween-80) 100 % of control; (dose: 200.0 mg/kg/injection, schedule: Q01DX005 (ip), vehicle: saline with Tween-80) 100 % of control.

On to `COCCn1c2nc(=O)n(-c3ccccc3)c(=O)c-2nc2c1CCCC2`, for which the T/C is, setting by setting: (dose: 25.0 mg/kg/injection, schedule: Q01DX009 (ip), vehicle: saline) 100 % of control; (dose: 50.0 mg/kg/injection, schedule: Q01DX009 (ip), vehicle: saline) 93 % of control; (dose: 100.0 mg/kg/injection, schedule: Q01DX009 (ip), vehicle: saline) 94 % of control; (dose: 200.0 mg/kg/injection, schedule: Q01DX009 (ip), vehicle: saline) 116 % of control.

On to `Cn1c2c(c3ccccc31)-c1ncncc1CC2`, for which the T/C was 106 % of control (dose: 50.0 mg/kg/injection, schedule: Q01DX005 (ip), vehicle: saline + Tween-80 + alcohol); 92 % of control (dose: 100.0 mg/kg/injection, schedule: Q01DX005 (ip), vehicle: saline + Tween-80 + alcohol); 103 % of control (dose: 200.0 mg/kg/injection, schedule: Q01DX005 (ip), vehicle: saline + Tween-80 + alcohol).

As to `CC1NC(=O)C(NC(=O)c2cnc3ccccc3n2)COC(=O)C(C(C)C)N(C)C(=O)C2CSSCC(C(=O)N(C)C(C(C)C)C(=O)OCC(NC(=O)c3cnc4ccccc4n3)C(=O)NC(C)C(=O)N2C)N(C)C1=O` (stereo not given) (I: Quinoxaline2carbonyl-SA[NMeC][NMeV] / II: Quinoxaline2carbonyl-SA[NMeC][NMeV]; ester I:1-II:C, I:C-II:1; disulfide I:3-II:3; configuration not given here), the T/C is 150 % of control (dose: 25.0 micrograms/kg/injection, schedule: Q01DX009 (ip), vehicle: water); 153 % of control (dose: 50.0 micrograms/kg/injection, schedule: Q01DX009 (ip), vehicle: water); 185 % of control (dose: 100.0 micrograms/kg/injection, schedule: Q01DX009 (ip), vehicle: water).

(Values after PubChem BioAssay AID330 (DTP/NCI, 2004).)
